Calls of active or inactive are those of the source.
What was measured:
Candida albicans [1] = test: fluconazole-resistant Candida strain growth inhibitors – CaCi-8 strain, dry powder, set 4, dose response (AID 488950); type: functional, organism-based
Candida albicans [2] = test: resistant Candida growth with fluconazole co-treatment – CaCi-8 strain, Alamar Blue, dry powder, set 2, dose response (AID 488909); type: functional, organism-based
Candida albicans [3] = test: C. albicans growth inhibition with fluconazole – CaCi-2 strain, Alamar Blue, dry powder, set 4, dose response (AID 488943); type: functional, organism-based
[4] = target: T1, Endoribonuclease toxin MazF (Escherichia coli K-12, UniProt P0AE70); test: activation of MazEF endoribonuclease cleavage – biochemical, fluorescence, single-stranded RNA substrate, uHTS hits, dose response (AID 588481); type: functional
T1 sequence (P0AE70 whole entry): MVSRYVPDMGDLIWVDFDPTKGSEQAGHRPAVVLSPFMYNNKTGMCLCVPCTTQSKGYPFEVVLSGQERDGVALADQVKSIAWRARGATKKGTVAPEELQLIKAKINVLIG

[5] = target: T1, Endoribonuclease toxin MazF; test: substrate-only fluorescence increase artefacts – biochemical, single-stranded RNase substrate, counter-screen for MazEF activator project, dose response (AID 588502); type: functional
[6] = target: T1, Endoribonuclease toxin MazF; test: MazEF toxin-antitoxin RNase activation – biochemical, fluorescence, single-stranded RNA substrate, SAR follow-up (AID 588603); type: functional
MEF = test: SAR analysis of small molecule cytotoxicity of MazEF TA System activators in embryonic fibroblast (MEF) cells. [Related pubchem assays (depositor defined):AID504720, AID504743]; type: functional; conditions: Mus musculus
[7] = target: T1, Endoribonuclease toxin MazF; test: SAR analysis of small molecule activators of the MazEF TA System via a fluorescence-based single-stranded RNase assay counterscreen. [Related pubchem assays (depositor defined):AID504720, AID504743]; type: functional
Phospholipase A2 = Phospholipase A2 (Homo sapiens, UniProt P04054); type: functional;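 further: confirmatory dose-response counterscreen on phospholipase A2, testing hits that came from an ultra-high-throughput screen for ATG4B inhibitors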
Chain of Phospholipase A2 (P04054 whole entry): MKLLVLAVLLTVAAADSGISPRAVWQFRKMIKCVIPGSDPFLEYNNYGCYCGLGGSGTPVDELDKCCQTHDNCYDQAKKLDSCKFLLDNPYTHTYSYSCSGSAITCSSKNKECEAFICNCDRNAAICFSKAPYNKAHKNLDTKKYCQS

Cysteine protease ATG4B = Cysteine protease ATG4B (Homo sapiens, UniProt Q9Y4P1); type: functional;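 further: Fluorescence-based dose-response confirmation assay measuring inhibition of ATG4B activity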
Chain of Cysteine protease ATG4B (Q9Y4P1 whole entry): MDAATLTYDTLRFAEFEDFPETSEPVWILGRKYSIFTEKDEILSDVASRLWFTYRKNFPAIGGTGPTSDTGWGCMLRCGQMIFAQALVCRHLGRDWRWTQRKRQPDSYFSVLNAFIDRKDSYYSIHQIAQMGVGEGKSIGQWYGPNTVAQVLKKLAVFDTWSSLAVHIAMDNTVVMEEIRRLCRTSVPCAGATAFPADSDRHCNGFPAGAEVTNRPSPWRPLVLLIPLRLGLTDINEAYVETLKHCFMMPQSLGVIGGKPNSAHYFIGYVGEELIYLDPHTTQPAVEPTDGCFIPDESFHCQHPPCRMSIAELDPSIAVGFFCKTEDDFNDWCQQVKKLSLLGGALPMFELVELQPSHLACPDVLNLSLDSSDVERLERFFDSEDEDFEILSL

[8] = Luminescence-based dose response cell-based high throughput screening assay for cytotoxic compounds using the IEC-6 intestinal epithelial cell line. [Related pubchem assays: 1858 (Summary AID.), 1825 (Counterscreen.), 1907 (Confirmation screen.)]; type: functional
cells [9] = type: functional, cell-based
[10] = Trypanosoma cruzi growth suppression in host cells – NIH3T3 host cells, beta-gal luminescence, confirmation (AID 2044); type: functional, cell-based;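 further: intracellular parasites grown in NIH/3T3 mouse fibroblasts as host cells; luminescent beta-galactosidase reporter signal from transgenic T. cruzi replicating inside host cells; inhibitors lower the luminescence signal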
[11] = HEK-293T viability loss after treatment – luminescence, T-cell screen hits, cytotoxicity control for TCR NF-kB inhibitor project, dose response (AID 489026); type: functional, cell-based;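 further: cells exposed to compound about 14 hours before the viability readout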
BJ [12] = test: cells; type: functional, cell-based; conditions: Homo sapiens
HEK293 [13] = test: HEK293T cell viability loss, resazurin readout – resazurin fluorescence, cytotoxicity control for NF-kB activator project, SAR follow-up (AID 493251); type: functional, cell-based; conditions: Homo sapiens
[14] = non-specific 3'UTR reporter inhibition in Clone20-Shn3RL – cell-based, Renilla luciferase, cherry-picked, counter-screen for Shn3 inhibitor project, dose response (AID 624133); type: functional
BJ [15] = test: BJ-TERT fibroblast viability loss – cell-based, RAS-independent, luminescence, dose response (AID 1933); type: functional; conditions: Homo sapiens
Exodeoxyribonuclease V = Exodeoxyribonuclease V (Escherichia coli (strain K12), UniProt P04993+P07648+P08394); test: RecBCD inhibition via phage-restricted bacterial growth – absorbance, V66 E. coli, mutant T4 phage, counter-screen for AddAB inhibitor project, dose response (AID 492957); type: functional, cell-based, Escherichia coli str. K-12 substr. MG1655
Chain of Exodeoxyribonuclease V (P04993 whole entry): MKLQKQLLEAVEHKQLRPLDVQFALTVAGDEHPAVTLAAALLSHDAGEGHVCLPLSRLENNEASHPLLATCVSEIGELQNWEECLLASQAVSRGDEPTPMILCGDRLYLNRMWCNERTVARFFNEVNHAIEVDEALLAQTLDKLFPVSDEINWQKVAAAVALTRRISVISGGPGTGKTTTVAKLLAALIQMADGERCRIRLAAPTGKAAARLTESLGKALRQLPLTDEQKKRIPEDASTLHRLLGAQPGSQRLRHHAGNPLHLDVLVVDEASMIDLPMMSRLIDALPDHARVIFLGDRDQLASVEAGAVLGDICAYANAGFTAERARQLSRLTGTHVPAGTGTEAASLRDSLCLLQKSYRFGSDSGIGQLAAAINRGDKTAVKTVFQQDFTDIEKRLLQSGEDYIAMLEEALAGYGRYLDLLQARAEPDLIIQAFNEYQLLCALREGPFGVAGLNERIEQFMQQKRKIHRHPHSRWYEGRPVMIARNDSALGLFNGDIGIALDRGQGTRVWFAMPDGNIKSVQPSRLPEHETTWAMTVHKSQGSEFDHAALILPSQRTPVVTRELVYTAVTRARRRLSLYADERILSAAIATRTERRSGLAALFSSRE
Chain of Exodeoxyribonuclease V (P07648 whole entry): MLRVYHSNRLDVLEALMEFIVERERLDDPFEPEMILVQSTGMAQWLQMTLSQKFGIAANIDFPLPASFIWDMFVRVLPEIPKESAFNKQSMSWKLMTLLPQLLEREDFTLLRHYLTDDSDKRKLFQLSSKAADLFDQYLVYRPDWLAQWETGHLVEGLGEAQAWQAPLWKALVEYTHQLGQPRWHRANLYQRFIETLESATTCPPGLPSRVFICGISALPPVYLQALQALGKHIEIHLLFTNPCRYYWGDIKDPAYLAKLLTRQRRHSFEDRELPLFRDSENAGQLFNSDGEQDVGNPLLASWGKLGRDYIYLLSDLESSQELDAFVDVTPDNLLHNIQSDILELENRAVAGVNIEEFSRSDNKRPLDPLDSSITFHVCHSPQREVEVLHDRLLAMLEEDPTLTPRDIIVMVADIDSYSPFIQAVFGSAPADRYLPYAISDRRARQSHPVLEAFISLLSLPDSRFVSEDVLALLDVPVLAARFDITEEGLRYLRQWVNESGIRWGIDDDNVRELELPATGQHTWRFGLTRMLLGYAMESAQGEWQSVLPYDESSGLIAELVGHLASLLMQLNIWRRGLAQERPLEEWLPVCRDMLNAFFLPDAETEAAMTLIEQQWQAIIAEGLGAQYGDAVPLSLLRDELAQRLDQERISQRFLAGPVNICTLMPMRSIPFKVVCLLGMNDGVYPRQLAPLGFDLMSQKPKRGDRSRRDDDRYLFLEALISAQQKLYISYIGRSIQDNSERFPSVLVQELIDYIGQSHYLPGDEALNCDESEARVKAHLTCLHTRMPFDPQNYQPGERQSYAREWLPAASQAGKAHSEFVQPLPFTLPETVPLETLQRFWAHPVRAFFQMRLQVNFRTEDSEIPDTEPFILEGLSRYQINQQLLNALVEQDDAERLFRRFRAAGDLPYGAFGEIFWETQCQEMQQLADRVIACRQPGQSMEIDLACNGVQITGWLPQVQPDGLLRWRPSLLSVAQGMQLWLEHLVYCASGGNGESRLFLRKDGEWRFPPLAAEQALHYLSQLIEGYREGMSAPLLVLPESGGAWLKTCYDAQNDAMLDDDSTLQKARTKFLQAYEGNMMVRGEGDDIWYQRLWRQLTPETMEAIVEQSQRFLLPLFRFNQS
Chain of Exodeoxyribonuclease V (P08394 whole entry): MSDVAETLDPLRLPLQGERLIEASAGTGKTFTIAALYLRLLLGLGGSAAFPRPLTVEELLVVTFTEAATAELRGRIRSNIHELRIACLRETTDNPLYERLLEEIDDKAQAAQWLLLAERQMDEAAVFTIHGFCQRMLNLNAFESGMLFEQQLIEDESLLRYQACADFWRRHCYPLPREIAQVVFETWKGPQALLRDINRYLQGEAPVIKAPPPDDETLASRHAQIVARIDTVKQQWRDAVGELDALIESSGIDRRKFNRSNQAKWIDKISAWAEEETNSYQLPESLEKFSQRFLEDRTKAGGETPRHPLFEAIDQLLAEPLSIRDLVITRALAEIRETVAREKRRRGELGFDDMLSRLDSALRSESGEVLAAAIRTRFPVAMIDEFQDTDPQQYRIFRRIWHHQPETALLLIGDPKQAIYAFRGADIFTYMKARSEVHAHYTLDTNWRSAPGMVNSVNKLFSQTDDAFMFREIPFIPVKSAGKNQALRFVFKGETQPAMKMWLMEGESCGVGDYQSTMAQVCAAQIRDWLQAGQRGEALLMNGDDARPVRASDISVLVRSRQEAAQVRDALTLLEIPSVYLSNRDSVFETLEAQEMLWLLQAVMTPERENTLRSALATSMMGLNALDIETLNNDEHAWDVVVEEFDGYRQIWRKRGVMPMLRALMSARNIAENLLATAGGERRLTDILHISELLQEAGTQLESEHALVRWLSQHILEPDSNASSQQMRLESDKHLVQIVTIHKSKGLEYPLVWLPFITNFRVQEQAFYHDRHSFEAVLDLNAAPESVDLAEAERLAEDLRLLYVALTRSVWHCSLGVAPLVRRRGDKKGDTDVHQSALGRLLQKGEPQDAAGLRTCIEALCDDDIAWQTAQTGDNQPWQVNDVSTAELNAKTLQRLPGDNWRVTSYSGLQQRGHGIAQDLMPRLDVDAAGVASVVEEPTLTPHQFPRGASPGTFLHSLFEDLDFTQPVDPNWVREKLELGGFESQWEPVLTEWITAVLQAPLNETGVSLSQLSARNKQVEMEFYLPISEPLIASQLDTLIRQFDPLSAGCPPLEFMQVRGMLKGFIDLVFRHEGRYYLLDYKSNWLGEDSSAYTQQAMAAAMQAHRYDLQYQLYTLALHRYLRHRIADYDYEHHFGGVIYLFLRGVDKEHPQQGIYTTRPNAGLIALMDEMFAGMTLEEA

[16] = NIH3T3 cell viability loss – ATP luminescence, mouse fibroblasts, counter-screen, dose response (AID 2010); type: functional, cell-based;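 further: cells exposed to compound for about 90 hours before reading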
Jurkat = test: SAR Analysis of small molecule inhibitors of T-cell specific antigen receptor-induced NF-kB activation in a Jurkat cell line using a luminescence assay - Set 2. [Related pubchem assays (depositor defined):AID435003, AID435012, AID465]; type: functional, cell-based; conditions: Homo sapiens
[17] = Counterscreen for AddAB inhibitors: absorbance-based bacterial cell-based high throughput dose response assay for inhibitors of bacterial viability. [Related pubchem assays (depositor defined):AID435030, AID449728, AID449731, AID488942, AID488955, AID488956]; type: functional
INS1 = test: INS-1E survival protection against cytokine death – cell-based, luminescence, retest, dose response (AID 449756); type: functional; conditions: Rattus norvegicus;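 further: cell death triggered by IL-1 beta plus TNF-alpha plus IFN-gamma mixture; protective hits raise ATP signal compared with cytokine alone wells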
[18] = reduction of Shn3 3'UTR-driven luciferase in osteoblasts – cell-based, Clone20 osteoblasts, firefly luciferase, cherry-picked, dose response (AID 624132); type: functional;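 further: firefly luciferase luminescence from reporter carrying the Shn3 3'UTR in osteoblasts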
[19] = DRD fibroblast viability loss – cell-based, non-viral oncogenic, luminescence, dose response (AID 1934); type: functional; conditions: Homo sapiens
HEK293 [20] = test: SAR Analysis of small molecule inhibitors of T-cell specific antigen receptor-induced NF-kB activation in a HEK-293T cell line using a luminescence assay - Set 2. [Related pubchem assays (depositor defined):AID435003, AID435012, AID489026]; type: functional, cell-based; conditions: Homo sapiens
BJ [21] = test: BJ-TERT-LT-ST fibroblast viability loss – cell-based, RAS-independent, luminescence, dose response (AID 1935); type: functional; conditions: Homo sapiens;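 further: BJ fibroblasts immortalized with TERT plus LT and ST oncogenes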
cells [22] = type: functional, cell-based; remark: listed apart in the source
[23] = loss of viability in HepG2 cells – cell-based, CellTiter-Glo, cherry-picked, cytotoxicity control for Shn3 inhibitor project, dose response (AID 624134); type: functional
[24] = target: Heat shock protein HSP 90-alpha (Homo sapiens, UniProt P07900); type: functional, organism-based
Paired box protein Pax-8 = Paired box protein Pax-8 (Homo sapiens, UniProt Q06710); test: PAX8 transcriptional activity inhibition in RMG-I – RMG-I cells, luciferase, cherry-pick, dose response (AID 687027); type: functional, cell-based;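 further: luciferase reporter driven by Pax8 target thyroperoxidase promoter measured by SteadyGlo luminescence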
Chain of Paired box protein Pax-8 (Q06710 whole entry): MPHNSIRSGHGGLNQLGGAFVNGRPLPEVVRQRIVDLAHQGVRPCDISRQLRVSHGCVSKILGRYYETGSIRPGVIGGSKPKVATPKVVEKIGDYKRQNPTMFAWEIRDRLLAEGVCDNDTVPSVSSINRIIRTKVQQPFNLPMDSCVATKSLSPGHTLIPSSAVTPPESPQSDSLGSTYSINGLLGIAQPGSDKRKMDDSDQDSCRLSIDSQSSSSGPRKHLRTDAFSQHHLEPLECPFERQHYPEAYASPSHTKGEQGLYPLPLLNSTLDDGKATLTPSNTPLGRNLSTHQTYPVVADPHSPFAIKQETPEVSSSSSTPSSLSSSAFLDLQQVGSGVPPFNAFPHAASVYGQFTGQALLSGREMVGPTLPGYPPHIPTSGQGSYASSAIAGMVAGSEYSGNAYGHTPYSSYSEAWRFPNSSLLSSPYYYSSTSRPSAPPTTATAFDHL

HEK293 [25] = test: EBV LMP1 TES2 canonical NF-kB signalling blockers – cell-based, HEK293, luciferase, cherry-pick, dose response (AID 588343); type: functional; conditions: Homo sapiens

COc1ccc2c(N3CCN(C(=O)c4ccc(Cl)cc4)CC3)ccnc2c1
AC50 (Candida albicans [1]): 8.86 µM (active)
AC50 (Candida albicans [2]): 18.4 µM (active)
AC50 (Candida albicans [3]): 12.4 µM (active)

CN1C(=O)C(C)(C)c2cc(S(=O)(=O)NCc3ccc(C(=O)NCc4ccco4)cc3)ccc21
EC50 [4]: 7.01 µM (active)
EC50 [5]: 29.2 µM (inactive)
EC50 [6]: 3.35 µM (active)
CC50 (MEF): > 99 µM (inactive)
EC50 [7]: > 99 µM (inactive)

Cc1ccc(-n2c(SCC(=O)N/N=C/C=C/c3ccccc3[N+](=O)[O-])nc3ccccc3c2=O)cc1
IC50 (Phospholipase A2): 2.53 µM (active)
IC50 (Cysteine protease ATG4B): 6.42 µM (active)

CC(=O)NC(c1ccc(C(C)C)cc1)c1ccc2cccnc2c1O (configuration not stated)
IC50 [8]: 1.36 µM (active)
EC50 (cells [9]): > 350 µM (not active)
EC50 [10]: 0.337 µM (active)
IC50 [11]: > 80 µM (inactive)
EC50 (BJ [12]): 2.29 µM (inconclusive)
IC50 (HEK293 [13]): 56.1 µM (inactive)
AC50 [14]: 0.35 µM (active)
EC50 (BJ [15]): 0.958 µM (active)
IC50 (Exodeoxyribonuclease V): > 118 µM (inactive)
EC50 [16]: 0.424 µM (active)
IC50 (Jurkat): 2.6 µM (active)
IC50 [17]: > 118 µM (inactive)
AC50 (INS1): 0.494 µM (active)
AC50 [18]: 0.528 µM (active)
EC50 [19]: 8.18 µM (inconclusive)
IC50 (HEK293 [20]): 5.24 µM (active)
EC50 (BJ [21]): 8.47 µM (inconclusive)
EC50 (cells [22]): 3.64 µM (active)
AC50 [23]: 1.3 µM (active)
AC50 [24]: 3.58 µM (active)
AC50 (Paired box protein Pax-8): 2.03 µM (active)
AC50 (HEK293 [25]): 5.2 µM (active)
